Data reported in patent US9133257B2, “Antimicrobial peptides and derived metapeptides” (priority 1998, dated 2015).
Ends that are not written are not given here.

Experiments:
[1] = system: relevant pathogens; assay: microbicidal activity in vitro at pH 5.5 vs 7.2; type: cell-based
Text: Our preliminary data provide a basis for our central discovery that PMPs have specific, independent determinants responsible for direct antimicrobial activities and potentiation of neutrophil antimicrobial functions. We have shown that these determinants can be isolated, optimized, and utilized to design novel mosaic peptides with selective antimicrobial properties. With a goal of designing novel therapeutics that have potent and selective antimicrobial functions and low toxicity, optimizing the activities of the distinct structural determinants in such peptides is essential.
Controls contain buffer alone or non-antimicrobial proteins and organism as above. Mixtures are incubated at 37° C. for up to 48 hours, after which aliquots are quantitatively cultured and incubated for 24 to 48 hours. Killing is expressed as decrease in logarithm10 surviving CFU/ml. The limit of sensitivity in microbicidal assays is considered to be a 1 log reduction in viable cells.

[2] = system: Streptococcus pneumonia ATCC 35088; set-up: key: R, resistant; S, sensitive; conditions: control strain ATCC 35088; cited from earlier work
[3] = system: Escherichia coli ATCC 43827; set-up: key: R, resistant; S, sensitive; conditions: control strain ATCC 43827; cited from earlier work
[4] = system: Staphylococus Aureus ATCC 27217; set-up: key: R, resistant; S, sensitive; conditions: control strain ATCC 27217; cited from earlier work
[5] = system: Enterococcus Faecalis ATCC 47707; set-up: key: R, resistant; S, sensitive; conditions: control strain ATCC 47707; cited from earlier work
[6] = system: Pseudomonas aeruginosa ATCC 17468; set-up: key: R, resistant; S, sensitive; conditions: control strain ATCC 17468; cited from earlier work
[7] = system: S. aureus strain 6850; assay: flow cytometry of membrane depolarization (DiOC5), permeabilization (PI) and killing, PMP-susceptible strain; type: cell-based
Text: (§1) Our recent studies have provided new evidence that PMPs differ in mechanisms of action from those of other antimicrobial peptides. We used flow cytometry to study the mechanisms of action of PMPs against S. aureus strain pair 6850 (PMP^S) and JB-1 (PMP^R) in vitro. Strain JB-1 is a menadione auxotroph of parent strain 6850, and has a decreased transcytoplasmic membrane potential (ΔΨ). We used the fluorescent probes dioxycarbocyanine (DiOC5) and propidium iodide (PI) to quantify the effects of PMP-2 and human defensin NP-1 (hNP-1) on ΔΨ and permeability, respectively. […] Menadione reconstituted the PMP^R strain ΔΨ to a level equivalent to the PMP^S strain. This was associated with increased depolarization, permeabilization, and killing of the PMP^R strain due to PMP-2. Therefore, the mechanism of PMP-2 action involves rapid, pH-dependent membrane permeabilization with membrane depolarization. These effects were different from hNP-1, or the cationic antibacterial agents protamine or gentamicin.
Flow cytometry can also be used to examine kinetics and mechanisms of the action of the peptides on bacterial membrane integrity and energetics. Peptides which differ in activity or specificity for their ability to depolarize and/or permeabilize microbial membranes can also be compared by analysis of membrane depolarization, and permeabilization. DiOC5 is a charged lipophilic dye which partitions into the cytoplasm, and is dependent on intact Δψ for intracellular retention. Organisms prepared as above are labeled in darkness for 30 minutes at about 20° C. in PBS containing 0.05 μM DiOC5. Organisms are resuspended to a concentration of 5×10^8 CFU/ml in K^+MEM containing an individual peptide, and incubated at 37° C. For flow cytometry, organisms are washed, sonicated, counted, and resuspended in K^+MEM buffer. Reductions in mean DiOC5 fluorescence relative to controls are interpreted to represent loss of DiOCs, indicating membrane depolarization. Positive control cells exposed to valinomycin, as well as control cells not exposed to any peptides, are analyzed for DiOC5 fluorescence in parallel.
Propidium iodide is excluded from cells with normal membrane integrity, but enters cells permealized to molecules ≧2 nm in diameter, and can be stimulated to emit fluorescence at >620 nm. […] Cells are washed in fresh K^+MEM, sonicated, counted, and resuspended in KIMEM buffer containing 20 μM propidium iodide. Control cells exposed to ethanol (positive control for permeabilization) are assessed for propidium iodide uptake in parallel. Increases in mean propidium iodide fluorescence relative to control cells are interpreted to indicate increases in permeability.

[8] = system: Salmonella typhimurium strain 14028; assay: susceptibility of Salmonella typhimurium strains; type: cell-based; conditions: parental strain 14028
[9] = system: Candida Krusei ATCC 32672; set-up: key: R, resistant; S, sensitive; conditions: control strain ATCC 32672; cited from earlier work
[10] = system: Candida Albicans ATCC 36082; set-up: key: R, resistant; S, sensitive; conditions: control strain ATCC 36082; cited from earlier work
[11] = system: Candida Lusitaniae ATCC 42720; set-up: key: R, resistant; S, sensitive; conditions: control strain ATCC 42720; cited from earlier work
[12] = system: a spectrum of pathogens; assay: antimicrobial spectra in vitro (radial diffusion assay)
Protocol: Inocula were 1×10^6 CFU/ml, and incubation conditions were pH 7.2 (RP-1, Sequence No. 3) or pH 5.5 (RP-13, Sequence No. 14), for 24 hours at 37° C.
We have used the agar radial diffusion assay to determine antimicrobial activities of proteins against microbial pathogens in vitro. One million colony forming units are mixed into 10 ml (i.e., 1×10^5 CFU/ml) of melted 1% agarose (in 10 mM NaHPO4 and cooled to 42° C.) containing minimal nutrient and adjusted to either pH 5.5 or pH 7.2. The agar is solidified in culture dishes, and sample wells are formed. Peptides at various concentrations are dissolved in 10 μl of 0.01% acetic acid buffer (pH 5.5 or 7.2), loaded into individual wells, and incubated at 37° C. for three hours. The plate is then overlayed with 1% agarose containing nutrients and incubated (37° C., for at least 24 hours). Peptides purified by RP-HPLC lacking antimicrobial activity are tested in parallel as controls. Zones of inhibition are measured to quantify antimicrobial activity.

[13] = system: S. aureus strain JB-1; assay: flow cytometry of membrane depolarization (DiOC5), permeabilization (PI) and killing, PMP-resistant strain; type: cell-based; conditions: PMP-resistant strain JB-1 compared with PMP-susceptible strain
Text: as §1, with “This was associated with increased depolarization, permeabilization, and killing of the PMP^R strain due to PMP-2. Therefore, the mechanism of PMP-2 action involves rapid, pH-dependent membrane permeabilization with membrane depolarization. These effects were different from hNP-1, or the cationic antibacterial agents protamine or gentamicin.” left out
Flow cytometry can also be used to examine kinetics and mechanisms of the action of the peptides on bacterial membrane integrity and energetics. […] For flow cytometry, organisms are washed, sonicated, counted, and resuspended in K^+MEM buffer. Reductions in mean DiOC5 fluorescence relative to controls are interpreted to represent loss of DiOCs, indicating membrane depolarization. Positive control cells exposed to valinomycin, as well as control cells not exposed to any peptides, are analyzed for DiOC5 fluorescence in parallel.
Propidium iodide is excluded from cells with normal membrane integrity, but enters cells permealized to molecules ≧2 nm in diameter, and can be stimulated to emit fluorescence at >620 nm. […]

[14] = system: vascular endothelial cells; type: cell-based, human
Text: (§2) The majority of known mammalian antimicrobial peptides have been localized within leukocytes (e.g., defensins), or secreted onto epithelial surfaces such as intestinal lumen or tracheal epithelium (e.g., cryptdins, tracheal antimicrobial peptide). Prohibitive levels of mammalian cell toxicity have been noted with many of these peptides when they have been tested as antimicrobial therapeutics. In contrast, PMPs exert potent in vitro microbicidal activity against a broad spectrum of bacteria and fungi under physiological conditions that exist in the intravascular space. Several PMPs are released from platelets stimulated with agonists associated with infection. Therefore, in response to tissue injury, PMPs are likely released into the mammalian bloodstream at localized sites of infection. […] These potencies compare favorably to potent conventional antimicrobial agents such as aminoglycosides or amphotericin B.
Endothelial cell injury due to peptides is measured using a standard chromium (^51Cr) release assay, described in Filler, S. G., et al., “Candida stimulates endothelial cell eicosanoid production” J Infect Dis. […] After a predetermined incubation period, the medium is aspirated and the amount of ^51Cr released into the medium is measured by scintillation. […]

[15] = system: human neutrophils; assay: intracellular killing of S. aureus by neutrophils; type: cell-based; conditions: 2 hour time point, neutrophils lysed, quantitative culture
Protocol: (§3) We have initially studied the influence of PMP-2 on in vitro neutrophil phagocytosis and intracellular killing of S. aureus. In our preliminary experiments, a heterologous system was established employing human neutrophils, pooled normal human serum, or crude rabbit PMP-2. Organisms (5×10^7/ml) were pre-exposed to sub-lethal concentrations of serum or PMP-2 for 30 minutes, washed, mixed with neutrophils (20:1), and incubated at 37° C. for 2 hours. We observed a significant increase in phagocytosis of S. aureus when pre-exposed to PMP-2 (mean organisms/neutrophil=11.2), as compared with serum (mean organisms/neutrophil=6.4) or buffer control (mean organisms/neutrophil=3.7; P<0.05 for PMP-2 vs. serum or buffer). To quantify intracellular killing, neutrophils were lysed, and aliquots quantitatively cultured to enumerate surviving S. aureus cells.

[16] = system: S. aureus; assay: transmission electron microscopy of bacterial cells after peptide exposure; type: cell-based; conditions: 10 μg/ml, as little as 15-60 min
Text: PMPs and tPMPs target and disrupt microbial cytoplasmic membranes. We have investigated morphologic consequences of rabbit PMP-2 and tPMP-1 exposure to bacterial cells, protoplasts, and lipid bilayers in vitro using transmission electron microscopy (TEM) and biophysical techniques. […] Ultrastructural damage precedes detectable bactericidal and bacteriolytic effects. […] It is important to reiterate that PMPs are likely released into the bloodstream in response to infection, such that they presumably accumulate locally at sites of infection to act directly and indirectly in antimicrobial host defense.

[17] = system: human neutrophils; assay: neutrophil phagocytosis of S. aureus pre-exposed to sub-lethal PMP-2 or serum; type: cell-based; conditions: organisms pre-exposed 30 minutes to sub-lethal concentrations, mixed with neutrophils (20:1), 37° C., 2 hours
Protocol: as §3

[18] = system: human erythrocytes; type: cell-based
Text: as §2
Four-percent (vol/vol) of washed human erythrocytes (in PBS alone, or in PBS plus 10% heat-inactivated PNHS are incubated with selected peptides ranging in concentration up to 100 times greater than geometric mean MICs. After 24 hours of incubation at 37° C., erythrocyte permeabilization and hemolysis are determined spectrophotometrically. Permeabilization and hemolysis will be compared to buffers alone, and with a triton X-100 control (100% hemolysis).

H-ATKKNGRKLCLDLQAAL-OH [PMP-246-63]
pH dependence of microbicidal activity [1]: significantly amplified at pH 5.5 as compared to pH 7.2

CN[C@H](CC(C)C)C(=O)N[C@H]1C(=O)N[C@@H](CC(N)=O)C(=O)N[C@H]2C(=O)N[C@H]3C(=O)N[C@H](C(=O)N[C@H](C(=O)O)c4cc(O)cc(O)c4-c4cc3ccc4O)[C@H](O)c3ccc(c(Cl)c3)Oc3cc2cc(c3O[C@@H]2O[C@H](CO)[C@@H](O)[C@H](O)[C@H]2O[C@H]2C[C@](C)(N)[C@H](O)[C@H](C)O2)Oc2ccc(cc2Cl)[C@H]1O [Van, vancomycin]
Antibiotic Resistance Phenotype [2]: S | Antibiotic Resistance Phenotype [3]: S | Antibiotic Resistance Phenotype [4]: S | Antibiotic Resistance Phenotype [5]: R | Antibiotic Resistance Phenotype [6]: R

hNP-1: human neutrophil defensin NP-1
pH dependence of membrane permeabilization ([7]; pH 7.2 vs pH 5.5): greater at pH 7.2 than at pH 5.5 | membrane permeabilization, PMP-susceptible vs PMP-resistant strain ([7]; strains 6850 and JB-1 compared): equivalent | susceptibility of strain [8]: intrinsically resistant

C[C@@H]1[C@H](O)[C@@H](C)/C=C/C=C/C=C/C=C/C=C/C=C/C=C/[C@H](O[C@@H]2O[C@H](C)[C@@H](O)[C@H](N)[C@@H]2O)C[C@@H]2O[C@](O)(C[C@@H](O)C[C@@H](O)[C@H](O)CC[C@@H](O)C[C@@H](O)CC(=O)O[C@H]1C)C[C@H](O)[C@H]2C(=O)O [Amb, amphotericin B]
Antibiotic Resistance Phenotype [9]: S | Antibiotic Resistance Phenotype [10]: S | Antibiotic Resistance Phenotype [11]: R

ALYKKFKKKLLKSLKRLG [RP-1]
pH optima for microbicidal activity [12]: 7.2 pH | concentration for microbicidal activity ([12]; in vitro): nanomolar concentration

OC(Cn1cncn1)(Cn1cncn1)c1ccc(F)cc1F [Flu, fluconazole]
Antibiotic Resistance Phenotype [9]: R | Antibiotic Resistance Phenotype [10]: S | Antibiotic Resistance Phenotype [11]: R

B1: PMP-2: 74 residue rabbit platelet microbicidal protein, variant of PMP-1, analogue of rPF-4 (protein, listed as Oryctolagus cuniculus)
chain: SDDPKESEGDLHCVCVKTTSLVRPRHITNLELIKAGGHCPTANLIATKKNGRKLCLDLQAALYKKKIIKKLLES
depolarization, permeabilization and killing [13]: significantly less | pH dependence of microbicidal activity [1]: significantly greater microbicidal activity at pH 5.5 vs. 7.2 | depolarization, permeabilization and killing ([7]; PMP-susceptible strain 6850): rapidly depolarized, permeabilized, and killed | pH dependence of depolarization, permeabilization and killing ([7]; pH 5.5 vs. pH 7.2): significantly greater at pH 5.5 vs. pH 7.2 | damage of vascular endothelial cells [14]: minimal damage | S. aureus cells surviving intracellular killing [15]: 23.8% | ultrastructural damage (TEM) [16]: Rapid cytoplasmic membrane disruption, followed by cell wall swelling | susceptibility of strain [8]: as susceptible to PMP-2 as hNP-1 hypersusceptible strains 4252s and 5996s | phagocytosis of S. aureus, mean organisms/neutrophil [17]: 11.2 organisms/neutrophil | damage of human erythrocytes [18]: minimal damage
